Values of other authors, collected in patent publication US20150209442A1, “METHOD TO IMPROVE PHARMACOKINETICS OF DRUGS” (The Board of Regents of the University of Texas System, priority 2012, published 2015).

Experiments:
TRPV1 = conditions: spinal cord; completely reversible by a TRPV1 antagonist

bound to plasma proteins [%]	free (unbound) share of total concentration in plasma (plasma) [%]	Compound	tactile allodynia (TRPV1)
> 99	~0.1	CC(C(=O)O)c1ccc(-c2ccccc2)c(F)c1 (stereo not shown) [flurbiprofen]	
		COc1cc(CNC(=O)CCCC/C=C/C(C)C)ccc1O [capsaicin]	results in tactile allodynia
		9-hydroxyoctadecadienoic acid [9-HODE]	results in tactile allodynia
